Results taken from ChEMBL document CHEMBL2074329, “Characterization of the transport of a cationic octapeptide, octreotide, in rat bile canalicular membrane: possible involvement of P-glycoprotein” (Biol Pharm Bull, 1998).
Bridge positions count the residues as written; N and C are the ends. Square brackets hold non-standard residues; d marks the D form. Peptide text beside a SMILES is read from it. * marks the point of attachment. Threoninol(2S,3R) = C[C@@H](O)[C@H](CO)N*

Target: Multidrug resistance protein 1a (Rattus norvegicus) (UniProt Q6PSM0)
Sequence (Q6PSM0 as listed by the source): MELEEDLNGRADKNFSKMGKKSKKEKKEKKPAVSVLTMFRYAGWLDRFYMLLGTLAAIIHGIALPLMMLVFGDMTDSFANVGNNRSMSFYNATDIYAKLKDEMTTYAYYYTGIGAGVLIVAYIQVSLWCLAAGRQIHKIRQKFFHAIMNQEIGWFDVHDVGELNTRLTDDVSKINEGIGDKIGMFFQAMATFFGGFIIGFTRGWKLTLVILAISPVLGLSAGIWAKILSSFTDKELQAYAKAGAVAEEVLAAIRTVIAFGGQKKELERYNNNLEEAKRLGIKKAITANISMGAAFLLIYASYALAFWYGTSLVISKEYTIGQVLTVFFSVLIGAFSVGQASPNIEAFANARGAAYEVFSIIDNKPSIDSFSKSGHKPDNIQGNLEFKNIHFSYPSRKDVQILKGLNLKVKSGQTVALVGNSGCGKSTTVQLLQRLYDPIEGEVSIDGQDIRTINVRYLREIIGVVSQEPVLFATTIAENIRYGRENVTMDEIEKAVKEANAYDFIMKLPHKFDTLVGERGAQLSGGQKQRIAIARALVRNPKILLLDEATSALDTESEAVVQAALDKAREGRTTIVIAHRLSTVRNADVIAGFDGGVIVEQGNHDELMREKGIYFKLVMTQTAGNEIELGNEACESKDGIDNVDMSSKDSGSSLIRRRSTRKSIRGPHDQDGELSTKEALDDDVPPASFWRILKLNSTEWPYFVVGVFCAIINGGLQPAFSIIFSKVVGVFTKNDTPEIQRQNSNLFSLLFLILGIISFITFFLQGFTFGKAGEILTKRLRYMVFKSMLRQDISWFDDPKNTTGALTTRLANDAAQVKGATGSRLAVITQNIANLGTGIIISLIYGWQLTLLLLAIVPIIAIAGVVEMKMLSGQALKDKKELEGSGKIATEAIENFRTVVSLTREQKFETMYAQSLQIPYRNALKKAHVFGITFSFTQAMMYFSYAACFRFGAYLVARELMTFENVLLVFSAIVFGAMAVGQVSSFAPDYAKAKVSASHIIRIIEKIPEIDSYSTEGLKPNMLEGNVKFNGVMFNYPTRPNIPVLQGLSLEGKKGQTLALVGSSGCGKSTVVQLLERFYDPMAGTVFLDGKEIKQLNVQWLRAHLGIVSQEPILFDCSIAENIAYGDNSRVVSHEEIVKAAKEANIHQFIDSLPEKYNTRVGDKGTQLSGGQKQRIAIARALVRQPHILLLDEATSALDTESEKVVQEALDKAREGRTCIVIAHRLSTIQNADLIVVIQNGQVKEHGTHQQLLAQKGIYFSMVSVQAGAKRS
Test: TP_TRANSPORTER: uptake, inhibited by Verapamil, Vincristine and PSC833 in bile canalicular membrane vesicles from SD rat
Assay type: functional, cell membranes
Details: Sprague-Dawley, Bile canalicular membrane vesicle

Structure (SMILES): C[C@@H](O)[C@H](CO)NC(=O)[C@@H]1CSSC[C@H](NC(=O)[C@H](N)Cc2ccccc2)C(=O)N[C@@H](Cc2ccccc2)C(=O)N[C@H](Cc2c[nH]c3ccccc23)C(=O)N[C@@H](CCCCN)C(=O)N[C@@H]([C@@H](C)O)C(=O)N1 (H-[dF]CF[dW]KTC-{Threoninol(2S,3R)}; disulfide 2-7)
- Activity: substrate [+]
